Experimental data from patent publication US11845759B2, “Opioid compounds and uses thereof” (priority 2018, dated 2023).

Tests used:
[1] = Hydrolysis in HCl solutions; format: physicochemical; conditions: 6-OAc-Oxy
μ-opioid receptor [2] = target: T1, μ-opioid receptor (Homo sapiens (Human), UniProt P35372); experiment: [35S]GTPγS μ-opioid receptor functional assay; format: biochemical
μ-opioid receptor [3] = target: T1, μ-opioid receptor; format: binding
[4] = Hydrolysis in pH buffer/EtOH solutions; format: physicochemical; conditions: 6-OAc-Oxy
[5] = Hydrolysis in simulated intestinal fluid at 37° C.; conditions: for 6-OAc-Oxy (%): 6-OAc-Oxy in simulated intestinal fluid, 37° C.
[6] = Hydrolysis in simulated gastric fluid at 37° C.; conditions: 6-OAc-Oxy in simulated Gastric fluid
[7] = Hydrolysis in human blood serum at 37° C.; conditions: for 6-OAc-Oxy (%): 6-OAc-Oxy in human blood serum, 37° C.
[8] = pH = 7 buffer (1:1 EtOH:H2O), 0 hrs
[9] = pH = 7 buffer (1:1 EtOH:H2O), 0.5 hrs
[10] = pH = 7 buffer (1:1 EtOH:H2O), 2 hrs
[11] = pH = 7 buffer (1:1 EtOH:H2O), 26 hrs
[12] = pH = 8 buffer (1:1 EtOH:H2O), 0 hrs
[13] = pH = 8 buffer (1:1 EtOH:H2O), 0.5 hrs
[14] = pH = 8 buffer (1:1 EtOH:H2O), 2 hrs
[15] = pH = 8 buffer (1:1 EtOH:H2O), 26 hrs
[16] = pH = 9 buffer (1:1 EtOH:H2O), 0 hrs
[17] = pH = 9 buffer (1:1 EtOH:H2O), 0.5 hrs
[18] = pH = 9 buffer (1:1 EtOH:H2O), 4 hrs
[19] = pH = 9 buffer (1:1 EtOH:H2O), 8 hrs
[20] = pH = 9 buffer (1:1 EtOH:H2O), 22 hrs
[21] = pH = 10 buffer (1:1 EtOH:H2O), 0 hrs
[22] = pH = 10 buffer (1:1 EtOH:H2O), 0.5 hrs
[23] = pH = 10 buffer (1:1 EtOH:H2O), 2 hrs
[24] = pH = 10 buffer (1:1 EtOH:H2O), 4 hrs
[25] = pH = 11 buffer (1:1 EtOH:H2O), 0 hrs
[26] = pH = 11 buffer (1:1 EtOH:H2O), 0.5 hrs

## COc1ccc2c3c1OC1C(OC(C)=O)=CC[C@@]4(O)[C@@H](C2)N(C)CC[C@]314 (some centres unmarked) [6-acetyl oxycodone]
[1]; 0.1N HCl solution, 0 hrs
  6-OAc-Oxy (%): 89.4%
[1]; 0.1N HCl solution, 0.5 hrs
  6-OAc-Oxy (%): 89.0%
  Oxy (%): 6.43%
[1]; 0.1N HCl solution, 2 hrs
  6-OAc-Oxy (%): 86.4%
  Oxy (%): 7.8%
[1]; 0.1N HCl solution, 8 hrs
  6-OAc-Oxy (%): 86.1%
  Oxy (%): 9.5%
[1]; 0.1N HCl solution, 24 hrs
  6-OAc-Oxy (%): 67.3%
  Oxy (%): 30.1%
[1]; 1N HCl solution, 0 hrs
  6-OAc-Oxy (%): 89.4%
[1]; 1N HCl solution, 0.5 hrs
  6-OAc-Oxy (%): 81.5%
  Oxy (%): 16.6%
[1]; 1N HCl solution, 2 hrs
  6-OAc-Oxy (%): 61.0%
  Oxy (%): 30.3%
[1]; 1N HCl solution, 4 hrs
  6-OAc-Oxy (%): 42.0%
  Oxy (%): 56.4%
[1]; 1N HCl solution, 8 hrs
  6-OAc-Oxy (%): 18.2%
  Oxy (%): 80.8%
[1]; 1N HCl solution, 24 hrs
  6-OAc-Oxy (%): 1.7%
  Oxy (%): 95.3%
μ-opioid receptor [2]
  EC50: 1690 nM
μ-opioid receptor [2]; Conc. 3 μM, criteria ≥± 50%
  % Response Agonist: 62%
μ-opioid receptor [3]
  Ki: 41 nM
  Ki compared with that of oxycodone (in words): comparable
[4]; [8]
  6-OAc-Oxy (%): 89.4%
  Oxy (%): 9.4%
[4]; [9]
  6-OAc-Oxy (%): 87.2%
  Oxy (%): 9.5%
[4]; [10]
  6-OAc-Oxy (%): 87.9%
  Oxy (%): 8.2%
[4]; [11]
  6-OAc-Oxy (%): 77.9%
  Oxy (%): 12.9%
[4]; [12]
  6-OAc-Oxy (%): 89.4%
  Oxy (%): 9.4%
[4]; [13]
  6-OAc-Oxy (%): 87.4%
  Oxy (%): 10.4%
[4]; [14]
  6-OAc-Oxy (%): 87.0%
  Oxy (%): 8.8%
[4]; [15]
  6-OAc-Oxy (%): 75.3%
  Oxy (%): 20.9%
[4]; [16]
  6-OAc-Oxy (%): 89.4%
  Oxy (%): 9.0%
[4]; [17]
  6-OAc-Oxy (%): 89.4%
  Oxy (%): 9.0%
[4]; [18]
  6-OAc-Oxy (%): 86.3%
  Oxy (%): 11.9%
[4]; [19]
  6-OAc-Oxy (%): 75.5%
  Oxy (%): 14.9%
[4]; [20]
  6-OAc-Oxy (%): 66.5%
  Oxy (%): 26.9%
[4]; [21]
  6-OAc-Oxy (%): 89.4%
  Oxy (%): 9.0%
[4]; [22]
  6-OAc-Oxy (%): 32.3%
  Oxy (%): 65.2%
[4]; [23]
  6-OAc-Oxy (%): 1.6%
  Oxy (%): 96.8%
[4]; [24]
  6-OAc-Oxy (%): 1.2%
  Oxy (%): 98.3%
[4]; [25]
  6-OAc-Oxy (%): 89.4%
  Oxy (%): 9.0%
[4]; [26]
  6-OAc-Oxy (%): 1.6%
  Oxy (%): 97.1%
[5]; 0 hrs
  6-OAc-Oxy (%): 89.4%
[5]; 0.5 hrs
  6-OAc-Oxy (%): 39.8%
[5]; 2 hrs
  6-OAc-Oxy (%): 0.7%
[5]; 4 hrs
  6-OAc-Oxy (%): 0.0%
[5]; mixture in simulated intestinal fluid (37° C., pH 6.8, pancreatine)
  time to hydrolyze releasing oxycodone: less than 2 hours
[6]; 0 hrs
  6-OAc-Oxy (%): 89.4%
[6]; 2 hrs
  6-OAc-Oxy (%): 68.4%
[6]; 4 hrs
  6-OAc-Oxy (%): 66.1%
[6]; 8 hrs
  6-OAc-Oxy (%): 58.1%
[6]; 24 hrs
  6-OAc-Oxy (%): 46.2%
[7]; 0 hrs
  6-OAc-Oxy (%): 89.4%
[7]; 0.083 hrs (5 min)
  6-OAc-Oxy (%): 0.65%
[7]; 0.5 hrs
  6-OAc-Oxy (%): 0.39%
[7]; human blood serum (37° C.)
  hydrolysis in human blood serum (in words): hydrolyzed quickly
[7]; human blood serum (37° C.), five minutes
  hydrolysis to oxycodone (in words): mostly hydrolyzed to oxycodone
